One experiment has as its target T1, Flt-3 (Homo sapiens, UniProt P36888).
T1 sequence (P36888 27-993): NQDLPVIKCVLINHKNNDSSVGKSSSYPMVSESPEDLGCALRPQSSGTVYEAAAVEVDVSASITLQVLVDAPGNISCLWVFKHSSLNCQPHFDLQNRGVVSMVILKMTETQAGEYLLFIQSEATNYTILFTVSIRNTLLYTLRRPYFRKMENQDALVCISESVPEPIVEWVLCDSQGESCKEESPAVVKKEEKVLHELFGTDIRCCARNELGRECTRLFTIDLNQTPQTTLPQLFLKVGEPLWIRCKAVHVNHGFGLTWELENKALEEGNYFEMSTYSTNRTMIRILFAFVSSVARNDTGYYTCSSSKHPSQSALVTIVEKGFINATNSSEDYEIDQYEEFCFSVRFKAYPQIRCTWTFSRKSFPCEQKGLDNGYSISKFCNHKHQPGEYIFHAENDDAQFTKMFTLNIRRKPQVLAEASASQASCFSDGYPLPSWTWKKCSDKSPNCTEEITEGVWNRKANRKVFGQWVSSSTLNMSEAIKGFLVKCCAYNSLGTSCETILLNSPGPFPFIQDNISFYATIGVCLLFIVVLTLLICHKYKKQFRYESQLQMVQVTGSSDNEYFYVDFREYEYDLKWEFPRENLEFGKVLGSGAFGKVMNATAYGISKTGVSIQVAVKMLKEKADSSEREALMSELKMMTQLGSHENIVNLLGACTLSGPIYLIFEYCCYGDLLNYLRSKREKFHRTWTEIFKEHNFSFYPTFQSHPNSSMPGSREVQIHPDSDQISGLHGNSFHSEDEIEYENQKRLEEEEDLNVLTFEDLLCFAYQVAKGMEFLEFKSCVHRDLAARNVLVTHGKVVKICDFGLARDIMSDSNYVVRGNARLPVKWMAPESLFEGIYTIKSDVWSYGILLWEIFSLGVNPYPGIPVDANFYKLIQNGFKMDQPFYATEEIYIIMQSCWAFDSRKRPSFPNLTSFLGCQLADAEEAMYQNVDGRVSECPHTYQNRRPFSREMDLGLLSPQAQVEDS
Put plainly: Evaluation of kinase selectivity: % inhibition rate of Flt-3 at 1 μmol/L. The conditions noted are these: compound at 1 μmol/L. In kind it is biochemical. As to the method:
(§1) Biological Example 3: Evaluation of Kinase Selectivity
(§2) % inhibition rate with respect to various kinases (for example KDR etc.) of 1 μmol/L the test compound is measured.
(§3) A general assay condition (substrates, cofactor, ATP concentrations and reaction time etc.) suitable for respective kinase enzyme inhibition activity test is used.
(§4) 1 Prepare the test compounds into 1 mmol/L DMSO solution. 2 Transfer 20 nL of stock to 384 assay plate. Use DMSO as High and Low controls.
(§5) 1 Prepare the 1.3× Enzyme solution containing enzyme, substrate and cofactors. 2 Add 15 μL of 1.3× Enzyme solutions to each well and incubate the plate at room temperature for 30 min. 3 Initiate the reaction by adding 5 μL of 4×ATP solution. The final volume of each well should be 20 μL. 4 Incubate the plate at room temperature for reaction and add 75 μL of stopping buffer (containing 0.5 mol/L EDTA) to terminate the reaction.
(§6) Analyze the sample of each well using EZ reader (PerkinElmer).
(§7) Calculate the % Inhibition using read conversion ratio (CR) following the equation as below.
(§8) Use well treated with DMSO as High Control Use well without enzyme as Low Control

The target in the next experiment is T2, DDR1 (Homo sapiens, UniProt Q08345).
T2 construct: purchased Invitrogen
T2 sequence (Q08345 19-913): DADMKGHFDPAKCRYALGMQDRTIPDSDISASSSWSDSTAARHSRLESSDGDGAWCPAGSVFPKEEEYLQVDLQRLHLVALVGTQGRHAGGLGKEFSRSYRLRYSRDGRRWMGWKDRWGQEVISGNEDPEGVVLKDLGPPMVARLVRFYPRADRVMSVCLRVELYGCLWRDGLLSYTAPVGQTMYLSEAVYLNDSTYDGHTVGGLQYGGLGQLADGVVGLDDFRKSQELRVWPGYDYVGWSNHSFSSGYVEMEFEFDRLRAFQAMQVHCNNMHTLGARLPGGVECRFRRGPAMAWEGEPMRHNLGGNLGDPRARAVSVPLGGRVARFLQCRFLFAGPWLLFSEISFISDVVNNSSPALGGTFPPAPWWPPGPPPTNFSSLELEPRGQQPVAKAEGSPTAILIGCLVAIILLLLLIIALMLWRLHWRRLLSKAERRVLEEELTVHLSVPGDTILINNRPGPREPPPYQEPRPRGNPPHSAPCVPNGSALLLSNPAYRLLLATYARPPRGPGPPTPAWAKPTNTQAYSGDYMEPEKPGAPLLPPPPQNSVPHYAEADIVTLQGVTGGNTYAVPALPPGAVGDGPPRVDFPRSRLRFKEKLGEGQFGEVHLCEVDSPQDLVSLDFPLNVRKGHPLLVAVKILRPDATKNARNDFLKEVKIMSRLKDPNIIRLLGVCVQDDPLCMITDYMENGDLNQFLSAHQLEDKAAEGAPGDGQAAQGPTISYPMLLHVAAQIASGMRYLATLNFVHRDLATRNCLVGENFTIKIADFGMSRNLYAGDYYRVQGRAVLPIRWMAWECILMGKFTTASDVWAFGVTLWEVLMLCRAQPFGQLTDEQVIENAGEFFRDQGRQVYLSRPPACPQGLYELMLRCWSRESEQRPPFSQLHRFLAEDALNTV
As to the kind of experiment: Measurement of DDR1 inhibitory activity (LanthaScreen system, in vitro test). The conditions noted are these: GST-DDR1, Kinase tracer 178. Type of experiment: binding. As to the method: Biological Experiment Example 1: Measurement of an DDR1 Inhibitory Activity (In Vitro Test)
An DDR1 enzyme inhibitory activity was measured by using LanthaScreen (registered trademark) system (Invitrogen) based on the attached instruction. The reagents used are shown below.
Assay buffer: 5× Kinase buffer A (Invitrogen) was diluted 5-fold with ddH2O.
1× Kinase Buffer A: 50 mmol/L HEPES pH 7.5, 10 mmol/L MgCl2, 1 mmol/L EGTA, 0.01% Brij-35.
2×DDR1 Solution: a solution containing […] GST-DDR1 (Invitrogen) was prepared by using Assay buffer.
2× Tracer/antibody solution: a solution containing 20 nmol/L Kinase tracer 178 (Invitorgen) and […] Eu-Anti-GST Antibody (Invitorogen) was prepared by using Assay buffer. Test compound solution: a solution containing a test compound of 2-fold concentration with respect to the final concentration was prepared by 50-fold diluting a DMSO solution of test compound of each concentration with the Assay buffer.
• 1 Add 5 μL 2×DDR1 Solution to proxiplate (PerkinElmer) • 2 Add 5 μL test compound solution to proxiplate • 3 Incubate for 15 min at RT • 4 Add 5 μL 2× Tracer/Antibody solution to all well Incubate 1 h at RT • 6 Read LANCE Eu on Envision (PerkinElmer) (Ex: 320 nm/Em 665 nm & 615 nm)
In the low control group, 5 μL Assay buffer was added instead of 5 μL 2×DDR1 Solution and the final 1% DMSO solution was added instead of test compound solution.
In the high control group, the final 1% DMSO solution was added instead of test compound solution.
(§9) The inhibition rate (%) in the test compound group was calculated based on the following mathematical formula.
% inhibition=100−100*(assay value of test compound−A)/(B−A) [Math. 1]
A: average value of low control group B: average value of high control group
Values of 50% inhibition rate (IC50 values) of the test compound were calculated from the inhibition curve based on the inhibition rate of the test compounds in each concentration.
A general note: TR-FRET usually uses a lanthanide donor and a delayed reading to cut background.

A further experiment addresses KDR (Homo sapiens, UniProt P35968). Put plainly: Evaluation of kinase selectivity: % inhibition rate of KDR at 1 μmol/L. In kind it is biochemical. The conditions noted are these: compound at 1 μmol/L. As to the method: as §1, §2, §3, §4, §5, §6, §7, §8
The next experiment deals with ROCK (Homo sapiens, UniProt O75116). Put plainly: Evaluation of kinase selectivity: % inhibition rate of ROCK at 1 μmol/L. In kind it is biochemical. The conditions noted are these: compound at 1 μmol/L; read-out: % inhibition rate of ROCK2. As to the method:
as §1, §2, §3, §4, §5, §6, §7, §8

Experiment [1] deals with T3, DDR1 phosphorylation in T-47D (ATCC, HTB-133) cells (Homo sapiens, UniProt Q08345).
T3 construct: host or cells: T-47D
T3 sequence (Q08345 19-913): as above
Put plainly: Measurement of DDR1 phosphorylation suppression rate by using T-47D cells (p-DDR1 ELISA). The conditions noted are these: collagen Type I 10 μg/ml, p-DDR1 (panTyr) ELISA. Type of experiment: cell-based. As to the method:
Biological Example 2: Measurement of DDR1 Phosphorylation Suppression Rate by Using T-47D (ATCC, HTB-133) cells
T-47D cells should be in culture for at least 7 days before using in the assay.
Cell culture medium: RPMI 1640 (HyClone) containing 10% Heat-FBS (HyClone) was prepared.
Assay medium: RPMI 1640 containing 0.1% BSA (solarbio) was prepared.
Collagen Type I (rat tail) solution: Assay medium containing 200 μg/mL Collagen I, rat tail (Gibco) was prepared.
Cell lysis buffer: a solution containing IX cell lysis buffer (CST) and 1× protease and phosphatase inhibitor cocktail (Thermofisher) was prepared by using ddH2O.
• 1. Collect cells into tubes and centrifuge at 1200 rpm for 5 min, at room temperature. Re-suspend the cells in cell culture medium pre-warmed to room temperature. • 2. Count cells and suspend at a density of 2×10^5/ml of cell culture medium. Plate the cells at 100 μL per well (Corning 3599 96-well plate, 2×10^4 cells per well final), mixing the cells well between each draw of the pipettor. • 3. Put lid on cell plate and place into the incubator at 37° C., 5% CO2 • 4. Culture cell overnight
• 1. Remove the plate from the incubator • 2. Cell medium is replaced with the 90 μL Assay medium.
• 1. Compound plates are pre-titrated using DMSO (10-fold dilution for 6 points) • 2. Dilute test compound using assay medium; Transfer 1 μL compound to other 96 well plate and then add 49 μL assay medium to each well (50 fold dilution). • 3. Add 5 μL the diluted test compound solution to the appropriate wells by pipettor. Compound final concentration is start from […] and DMSO final concentration is 0.1 • 4. Tap the plates gently to mix in compound. Reseal the plate with a lid and place in the incubator again, for 24 h.
• 1. Diluted collagen Type I in assay medium to the 200 μg/ml concentration • 2. Using the pipettor adds 5 μL of 200 μg/mL collagen Type I solution to the cell plate (compound well and High control well, collagen final conc. is 10 μg/ml). Add assay medium buffer to the control wells (low control well) • 3. Reseal the plate with a lid and place in the incubator. Incubate 24 h for collagen type I
• 1. After incubation, add 100 µL per well Cell lysis buffer. • 2. Incubate 30 min on ice, then freezing to −80° C. to get the fully cell lysates. • 3. Transfer cell lysates to new plate • 4. Centrifuge for 30 min (×4000 rpm) at 4° C. Then transfer the supernatant to a new plate.
p-DDR1 (panTyr) ELISA kit (CST) was used in the study. The measurement was carried out according to the attached instruction.
as §9
% inhibition=100−100*(assay value of test compound−A)/(B−A) [Math. 2]
A: average value of low control group B: average value of high control group Values of 50% inhibition rate (IC50 values) of the test compound were calculated from the inhibition curve based on the inhibition rate of the test compounds in each concentration.

The values that follow come from patent publication US20220306640A1, “HYDANTOIN DERIVATIVE” (ONO PHARMACEUTICAL CO., LTD., priority 2019, published 2022).

Structures are written as SMILES.

ROCK, sequence (O75116 whole entry): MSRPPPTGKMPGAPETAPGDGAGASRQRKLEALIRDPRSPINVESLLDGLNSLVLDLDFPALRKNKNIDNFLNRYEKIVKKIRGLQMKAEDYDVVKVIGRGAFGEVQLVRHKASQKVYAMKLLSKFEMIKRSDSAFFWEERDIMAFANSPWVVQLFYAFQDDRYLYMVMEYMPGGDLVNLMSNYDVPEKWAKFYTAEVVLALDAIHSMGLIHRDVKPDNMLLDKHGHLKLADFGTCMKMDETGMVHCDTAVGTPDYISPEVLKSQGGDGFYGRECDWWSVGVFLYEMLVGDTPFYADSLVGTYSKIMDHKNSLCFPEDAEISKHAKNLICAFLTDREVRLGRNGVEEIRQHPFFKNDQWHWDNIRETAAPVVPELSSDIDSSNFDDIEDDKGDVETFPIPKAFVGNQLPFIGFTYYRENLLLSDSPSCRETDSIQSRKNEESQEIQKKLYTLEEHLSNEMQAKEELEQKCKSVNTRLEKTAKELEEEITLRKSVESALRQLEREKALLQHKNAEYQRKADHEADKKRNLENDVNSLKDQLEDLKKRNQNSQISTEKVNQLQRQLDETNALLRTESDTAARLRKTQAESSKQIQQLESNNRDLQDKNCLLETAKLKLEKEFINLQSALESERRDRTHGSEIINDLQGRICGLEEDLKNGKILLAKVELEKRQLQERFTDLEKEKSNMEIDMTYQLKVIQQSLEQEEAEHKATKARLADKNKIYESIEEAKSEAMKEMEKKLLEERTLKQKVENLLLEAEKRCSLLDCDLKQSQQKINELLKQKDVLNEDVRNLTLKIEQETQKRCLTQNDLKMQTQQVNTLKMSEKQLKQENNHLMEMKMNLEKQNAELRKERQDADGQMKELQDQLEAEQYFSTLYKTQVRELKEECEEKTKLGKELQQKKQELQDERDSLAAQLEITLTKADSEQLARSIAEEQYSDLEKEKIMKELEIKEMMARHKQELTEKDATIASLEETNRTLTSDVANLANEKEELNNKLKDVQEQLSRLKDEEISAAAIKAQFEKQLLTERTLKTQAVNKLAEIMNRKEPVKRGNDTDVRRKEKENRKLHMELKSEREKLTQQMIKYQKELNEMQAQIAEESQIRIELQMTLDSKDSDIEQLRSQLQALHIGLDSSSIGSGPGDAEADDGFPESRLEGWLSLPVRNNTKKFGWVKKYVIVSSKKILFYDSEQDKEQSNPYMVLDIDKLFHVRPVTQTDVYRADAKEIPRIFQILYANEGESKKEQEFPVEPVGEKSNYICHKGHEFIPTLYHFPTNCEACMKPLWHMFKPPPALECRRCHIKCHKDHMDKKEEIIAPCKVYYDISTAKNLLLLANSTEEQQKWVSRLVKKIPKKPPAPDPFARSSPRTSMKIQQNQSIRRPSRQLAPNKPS
KDR, sequence (P35968 20-1356, species assumed): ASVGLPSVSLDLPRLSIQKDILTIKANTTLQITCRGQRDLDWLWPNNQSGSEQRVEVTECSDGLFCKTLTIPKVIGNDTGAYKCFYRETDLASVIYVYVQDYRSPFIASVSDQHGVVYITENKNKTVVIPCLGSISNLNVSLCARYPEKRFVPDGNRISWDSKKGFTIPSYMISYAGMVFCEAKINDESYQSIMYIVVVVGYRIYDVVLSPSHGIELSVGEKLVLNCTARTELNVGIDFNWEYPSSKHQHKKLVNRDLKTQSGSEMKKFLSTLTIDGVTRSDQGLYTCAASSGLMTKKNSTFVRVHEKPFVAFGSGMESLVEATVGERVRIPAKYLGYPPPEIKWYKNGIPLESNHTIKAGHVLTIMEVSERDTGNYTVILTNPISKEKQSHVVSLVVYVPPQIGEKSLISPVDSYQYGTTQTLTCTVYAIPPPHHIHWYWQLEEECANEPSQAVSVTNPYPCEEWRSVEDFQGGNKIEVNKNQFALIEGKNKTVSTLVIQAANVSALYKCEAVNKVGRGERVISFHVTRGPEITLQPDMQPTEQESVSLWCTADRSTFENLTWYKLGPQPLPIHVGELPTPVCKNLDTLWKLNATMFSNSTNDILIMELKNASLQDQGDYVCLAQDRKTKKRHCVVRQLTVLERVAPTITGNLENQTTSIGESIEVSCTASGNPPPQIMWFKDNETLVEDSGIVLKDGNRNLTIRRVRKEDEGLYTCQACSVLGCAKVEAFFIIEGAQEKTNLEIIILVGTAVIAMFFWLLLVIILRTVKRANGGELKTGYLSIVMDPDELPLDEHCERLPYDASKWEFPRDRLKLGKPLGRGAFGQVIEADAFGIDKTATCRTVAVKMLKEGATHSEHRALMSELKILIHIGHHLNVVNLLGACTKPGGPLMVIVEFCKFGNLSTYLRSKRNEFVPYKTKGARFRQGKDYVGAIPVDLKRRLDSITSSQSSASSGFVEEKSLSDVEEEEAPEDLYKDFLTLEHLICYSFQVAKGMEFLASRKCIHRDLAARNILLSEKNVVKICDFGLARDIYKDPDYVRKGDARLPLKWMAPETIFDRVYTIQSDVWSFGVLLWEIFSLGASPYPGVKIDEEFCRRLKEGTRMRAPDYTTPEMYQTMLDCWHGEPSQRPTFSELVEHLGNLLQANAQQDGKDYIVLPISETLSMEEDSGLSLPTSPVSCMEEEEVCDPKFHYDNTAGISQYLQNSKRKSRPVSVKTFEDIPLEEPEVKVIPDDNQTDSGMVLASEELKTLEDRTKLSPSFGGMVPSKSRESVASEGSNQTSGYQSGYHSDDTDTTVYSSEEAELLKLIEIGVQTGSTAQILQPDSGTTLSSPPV

On to `O=C1CN(c2cncc(C(F)(F)F)c2)C(=O)N1c1ccc(Oc2cnc3[nH]ncc3c2)cc1` [Example 1(11), 3-[4-(1H-pyrazolo[3,4-b]pyridin-5-yloxy)phenyl]-1-[5-(trifluoromethyl)-3-pyridinyl]-2,4-imidazolidinedione], for which the inhibition at 1 µM was 16% on Flt-3, 2% against KDR and -2% at ROCK. Also, the concentration for half-maximal inhibition (IC50) (on DDR1; in experiment [1]) was 1 nM in each case.
Take `Cc1cc(Oc2ccnc(N)n2)ccc1N1C(=O)CN(c2cncc(C(F)(F)F)c2)C1=O` [Example 2, 3-{4-[(2-amino-4-pyrimidinyl)oxy]-2-methylphenyl}-1-[5-(trifluoromethyl)-3-pyridinyl]-2,4-imidazolidinedione]: the figures for the inhibition at 1 µM against Flt-3, on KDR and on ROCK were 4%, 1% and -5%, respectively. Moreover, the results for the IC50 (at DDR1; in experiment [1]) were 5 nM and 3 nM, respectively.
On to `O=C1CN(c2cncc(C(F)(F)F)c2)C(=O)N1C12CCC(Oc3ncnc4[nH]ccc34)(CC1)C2` [Example 3(65), 3-[4-(7H-pyrrolo[2,3-d]pyrimidin-4-yloxy)bicyclo[2.2.1]hept-1-yl]-1-[5-(trifluoromethyl)-3-pyridinyl]-2,4-imidazolidinedione], for which the figures for the inhibition at 1 µM on Flt-3, on KDR and on ROCK were 5%, -1% and 5%, respectively. In addition, the IC50 worked out at 3 nM at DDR1 and 2 nM in experiment [1].
Take `O=C1CN(c2cncc(C(F)(F)F)c2)C(=O)N1C12CCC(Oc3ncnc4[nH]cc(F)c34)(CC1)C2` [Example 42(1), 3-{4-[(5-fluoro-7H-pyrrolo[2,3-d]pyrimidin-4-yl)oxy]bicyclo[2.2.1]hept-1-yl}-1-[5-(trifluoromethyl)-3-pyridinyl]-2,4-imidazolidinedione]: the inhibition at 1 µM at Flt-3 is -2%; against KDR, -3%; at ROCK, -8%. In experiment [1], this compound yielded a half-maximal inhibitory concentration (IC50) of 8 nM.

In general, inhibition refers to the relative decrease from the control value, in per cent. What is called IC50 is the concentration that inhibits the measured activity by half. A lower IC50 goes with higher potency.
